Source: ChEMBL document CHEMBL1201862, “PubChem BioAssay data set” (2004)
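Method: 48-hour compound exposure of cells in 96-well plates, five concentrations, linear interpolation of endpoints. Abbreviation: GI50, concentration required for 50% inhibition of growth.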 Calls of active or inactive are those of the source. Cut-off read from the data, not from the text of the source: active = GI50 up to about 1.1 µM and inactive = higher.

Columns and labels:
Test in all cases: NCI tumour cell line growth inhibition, 48 h
SF-295 = test system: SF-295
HCC 2998 = test system: HCC 2998
NCI/ADR-RES = test system: NCI/ADR-RES
SNB-75 = test system: SNB-75
SK-OV-3 = test system: SK-OV-3
OVCAR-4 = test system: OVCAR-4
SF-539 = test system: SF-539
HL-60 = test system: HL-60
UO-31 = test system: UO-31
U-251 = test system: U-251
NCI-H460 = test system: NCI-H460
LOX IMVI = test system: LOX IMVI
DU-145 = test system: DU-145
KM12 = test system: KM12
UACC-62 = test system: UACC-62
SNB-19 = test system: SNB-19
OVCAR-3 = test system: OVCAR-3
SK-MEL-28 = test system: SK-MEL-28
SW-620 = test system: SW-620
MCF7 = test system: MCF7

Row | Structure (SMILES) | GI50 (SF-295) | GI50 (HCC 2998) | GI50 (NCI/ADR-RES) | GI50 (SNB-75) | GI50 (SK-OV-3) | GI50 (OVCAR-4) | GI50 (SF-539) | GI50 (HL-60) | GI50 (UO-31) | GI50 (U-251) | GI50 (NCI-H460) | GI50 (LOX IMVI) | GI50 (DU-145) | GI50 (KM12) | GI50 (UACC-62) | GI50 (SNB-19) | GI50 (OVCAR-3) | GI50 (SK-MEL-28) | GI50 (SW-620) | GI50 (MCF7)
1 | CN(C)c1ccc(C(=O)NCCCCCCC(=O)NO)cc1 | 0.326 µM (active) | 0.348 µM (active) | 0.14 µM (active) | 0.251 µM (active) | 0.299 µM (active) | 1.64 µM (inactive) | 0.589 µM (active) | 0.397 µM (active) | 0.557 µM (active) | 0.486 µM (active) | 0.417 µM (active) | 0.272 µM (active) | 0.335 µM (active) | 0.684 µM (active) | 0.275 µM (active) | 2 µM (inactive) | 0.519 µM (active) | 0.434 µM (active) | 0.312 µM (active) | 0.237 µM (active)
2 | c1ccc(CNCCCNCCCCNCCCNCc2ccccc2)cc1 | 15.1 µM (inactive) | 5.66 µM (inactive) | 38.7 µM (inactive) | 8.91 µM (inactive) | 15.7 µM (inactive) | 13.8 µM (inactive) | 1.76 µM (inactive) | 0.656 µM (active) | 12.2 µM (inactive) | 7.87 µM (inactive) | 6.27 µM (inactive) | 3.15 µM (inactive) | 12.8 µM (inactive) | 5.52 µM (inactive) | 6.59 µM (inactive) | 13.2 µM (inactive) | 11.9 µM (inactive) | 12.1 µM (inactive) | 1.8 µM (inactive) | 3.21 µM (inactive)
3 | N#CCCN(CCCN(C(=O)Nc1ccc(NC(=O)N(CCCN(CCC#N)C(N)=O)c2ccccc2)cc1)c1ccccc1)C(N)=O | > 100 µM (inactive) | > 100 µM (inactive) | > 100 µM (inactive) | 67.5 µM (inactive) | > 100 µM (inactive) | > 100 µM (inactive) | > 100 µM (inactive) | > 100 µM (inactive) | > 100 µM (inactive) | > 100 µM (inactive) | > 100 µM (inactive) | > 100 µM (inactive) | > 100 µM (inactive) | > 100 µM (inactive) | > 100 µM (inactive) | > 100 µM (inactive) | > 100 µM (inactive) | > 100 µM (inactive) | > 100 µM (inactive) | 4.72 µM (inactive)
4 | Cc1nc(-c2ccc(/N=C/c3ccc(N(CCOS(C)(=O)=O)CCOS(C)(=O)=O)cc3C)cc2)cs1 | 37.7 µM (inactive) | 30 µM (inactive) | > 100 µM (inactive) | 40.9 µM (inactive) | 26.5 µM (inactive) | 59.6 µM (inactive) | 3.04 µM (inactive) | 3.94 µM (inactive) | 18.7 µM (inactive) | 36.9 µM (inactive) | 9.46 µM (inactive) | 19.4 µM (inactive) | 11.5 µM (inactive) | 32.1 µM (inactive) | 9.59 µM (inactive) | > 100 µM (inactive) | 30.8 µM (inactive) | 97.9 µM (inactive) | 67.9 µM (inactive) | 2.44 µM (inactive)
5 | O=C(CNc1ccc([N+](=O)[O-])cc1)Nn1c(-c2ccccc2)nc2ccccc2c1=O | 14.5 µM (inactive) | 9.02 µM (inactive) | 2.33 µM (inactive) | 3.73 µM (inactive) | 3.97 µM (inactive) | 2.79 µM (inactive) | 2.85 µM (inactive) | 2.26 µM (inactive) | 4.32 µM (inactive) | 1.95 µM (inactive) | 3.81 µM (inactive) | 0.841 µM (active) | 8.91 µM (inactive) | 4.56 µM (inactive) | 1.32 µM (inactive) | 8.75 µM (inactive) | 6.93 µM (inactive) | 3.25 µM (inactive) | 2.39 µM (inactive) | 2.52 µM (inactive)
6 | CC(C)(C)NC(=O)N1N=C(c2ccccc2)C1c1ccccc1 (stereo not given) | 35.6 µM (inactive) | > 100 µM (inactive) | 35.2 µM (inactive) | 87.1 µM (inactive) | > 100 µM (inactive) | 56.5 µM (inactive) | 22.1 µM (inactive) | 32.6 µM (inactive) | 18.2 µM (inactive) | 69.3 µM (inactive) | 41.1 µM (inactive) | 35.7 µM (inactive) | > 100 µM (inactive) | 47.6 µM (inactive) | 52.6 µM (inactive) | 34.3 µM (inactive) | 21.5 µM (inactive) | 48.3 µM (inactive) | 31.1 µM (inactive) | 41.7 µM (inactive)
7 | Cc1cccc2c1C(=O)[C@@](C)([C@]1(C)Nc3cccc(C)c3C1=O)N2 | > 100 µM (inactive) | > 100 µM (inactive) | > 100 µM (inactive) | 30.4 µM (inactive) | > 100 µM (inactive) | > 100 µM (inactive) | > 100 µM (inactive) | 0.499 µM (active) | > 100 µM (inactive) | > 100 µM (inactive) | > 100 µM (inactive) | > 100 µM (inactive) | > 100 µM (inactive) | > 100 µM (inactive) | > 100 µM (inactive) | > 100 µM (inactive) | > 100 µM (inactive) | > 100 µM (inactive) | > 100 µM (inactive) | > 100 µM (inactive)
8 | CCC/C(Cl)=N\OC(=O)Nc1cccc(C(F)(F)F)c1 | 13.5 µM (inactive) | 18.2 µM (inactive) | 20.6 µM (inactive) | 10.4 µM (inactive) | 13.6 µM (inactive) | 22.6 µM (inactive) | 18.7 µM (inactive) | 1.88 µM (inactive) | 19.6 µM (inactive) | 18.5 µM (inactive) | 19.4 µM (inactive) | 6.84 µM (inactive) | 13.2 µM (inactive) | 17.6 µM (inactive) | 18.9 µM (inactive) | > 100 µM (inactive) | 22.4 µM (inactive) | 19.2 µM (inactive) | 2.81 µM (inactive) | 14 µM (inactive)
9 | Cc1ccc2c(n1)C(=O)C=CC2=O | 18.2 µM (inactive) | 16.3 µM (inactive) | 18.1 µM (inactive) | 19.4 µM (inactive) | 18.3 µM (inactive) | 6.87 µM (inactive) | 16.5 µM (inactive) | 0.486 µM (active) | 5.46 µM (inactive) | 17.4 µM (inactive) | 17.4 µM (inactive) | 4.88 µM (inactive) | 14.8 µM (inactive) | 21.2 µM (inactive) | 13.7 µM (inactive) | 18 µM (inactive) | 2.71 µM (inactive) | 3.56 µM (inactive) | 3 µM (inactive) | 5.33 µM (inactive)
10 | Cc1ccc(S(=O)(=O)/N=C2/N(C)CCCS2(=O)=O)cc1 | 0.17 µM (active) | > 100 µM (inactive) | > 100 µM (inactive) | > 100 µM (inactive) | > 100 µM (inactive) | > 100 µM (inactive) | > 100 µM (inactive) | > 100 µM (inactive) | > 100 µM (inactive) | > 100 µM (inactive) | > 100 µM (inactive) | > 100 µM (inactive) | > 100 µM (inactive) | > 100 µM (inactive) | > 100 µM (inactive) | > 100 µM (inactive) | > 100 µM (inactive) | > 100 µM (inactive) | > 100 µM (inactive) | > 100 µM (inactive)
11 | CN(C)CCNC(=O)C(C)(C)Oc1ccc(C(=O)c2ccc(Cl)cc2)cc1Cl | 10.6 µM (inactive) | 5.21 µM (inactive) | 12.5 µM (inactive) | 11.5 µM (inactive) | 15.9 µM (inactive) | 14.5 µM (inactive) | 9.46 µM (inactive) | 5.26 µM (inactive) | 9.59 µM (inactive) | 7.05 µM (inactive) | 7.98 µM (inactive) | 7.11 µM (inactive) | 13.2 µM (inactive) | 8.93 µM (inactive) | 2.04 µM (inactive) | 13 µM (inactive) | 12.6 µM (inactive) | 1.94 µM (inactive) | 5.26 µM (inactive) | 8.34 µM (inactive)
12 | C[n+]1c2ccccc2c(CNC(CCC(N)=O)C(=O)O)c2ccccc21 (stereo not given) | 6.71 µM (inactive) | 4.24 µM (inactive) | 4.56 µM (inactive) | 5.22 µM (inactive) | 6.21 µM (inactive) | 3.46 µM (inactive) | 2.34 µM (inactive) | 0.239 µM (active) | 2.67 µM (inactive) | 3.31 µM (inactive) | 3.72 µM (inactive) | 1.94 µM (inactive) | 5.52 µM (inactive) | 2.46 µM (inactive) | 2.23 µM (inactive) | 6.18 µM (inactive) | 2.31 µM (inactive) | 5.96 µM (inactive) | 0.506 µM (active) | 1.02 µM (active)
13 | NNc1ccccc1Cl | 27.3 µM (inactive) | > 100 µM (inactive) | > 100 µM (inactive) | > 100 µM (inactive) | > 100 µM (inactive) | 91.2 µM (inactive) | > 100 µM (inactive) | 2.88 µM (inactive) | 89.1 µM (inactive) | 48.4 µM (inactive) | 41.4 µM (inactive) | > 100 µM (inactive) | > 100 µM (inactive) | > 100 µM (inactive) | 23.4 µM (inactive) | > 100 µM (inactive) | 38.7 µM (inactive) | > 100 µM (inactive) | > 100 µM (inactive) | > 100 µM (inactive)
14 | COc1cccc(/C=C2\N=C(c3ccccc3)OC2=O)c1 | > 100 µM (inactive) | 49.7 µM (inactive) | 25.8 µM (inactive) | 16.1 µM (inactive) | > 100 µM (inactive) | 53.6 µM (inactive) | 43.1 µM (inactive) | 10.7 µM (inactive) | > 100 µM (inactive) | 63.7 µM (inactive) | 50.7 µM (inactive) | 26.4 µM (inactive) | 91.2 µM (inactive) | 73.5 µM (inactive) | > 100 µM (inactive) | 35.1 µM (inactive) | 63.1 µM (inactive) | > 100 µM (inactive) | > 100 µM (inactive) | > 100 µM (inactive)
